# Laboratory results as given in US7521454B2 (Dainippon Sumitomo Pharma Co., Ltd., priority 2001, dated 2009).
# Columns and labels:
# Balb/c male mouse = experiment: Interferon-inducing activity in mouse (in vivo), serum interferon titer after oral dosing
# mouse spleen cell = experiment: cells; type: cell-based; details: Mus musculus, 24 h, read-out: Interferon-inducing activity: Minimum effective concentration
# [1] = Solubility in citric acid/disodium phosphate buffers; details: for solubility at 30 min: thermodynamic from solid
# Experimental: 5.53% citric acid (monohydrate) and 1.75% disodium phosphate (anhydrous) were mixed together to prepare buffers (pH 2.5, 5.5, 7.4). A compound was added thereto, the mixture was stirred in a vortex mixer and subjected to ultrasonication for 30 minutes. Thereafter, the resultant was stirred in a vortex mixer again and then centrifuged at 15,000 rpm for 20 minutes. The levels of the compounds in the supernatants were then quantified by HPLC.
# IL-4 production = experiment: Inhibitory activity against Th2 cytokine produced from sensitized spleen cells: IL-4; type: cell-based, mouse; details: Mus musculus, 72 h, read-out: Inhibitory activity against IL-4 production
# Experimental: (§1) A 7-week-old BALB/c mouse was immunized intraperitoneally with aluminum hydroxide gel (4 mg, 100 μl) having 10 μg of ovalbumin adsorbed thereon, and it was subjected to additional immunization with the same agent 14 days later. Seven days thereafter, spleen was taken out, and suspended in RPMI-1640 comprising inactivated fetal bovine serum (10%), 2-mercaptoethanol ([…]), penicillin G (100 U/ml), and streptomycin (100 μg/ml). Thus, a splenic cell suspension was prepared. Ovalbumin (0.5 mg/ml) and a test compound were added to a splenic cell suspension (5×10^6 cell/200 μl/well), and the resultant was cultured at 37° C. in the presence of 5% CO2 for 3 days. The cytokine level in the culture supernatant was quantified by ELISA. IFN-γ and IL-4 were assayed using a kit available from Amersham, and IL-5 was assayed using a kit available from Endogen.
# IL-5 production = experiment: Inhibitory activity against Th2 cytokine produced from sensitized spleen cells: IL-5; type: cell-based, mouse; details: Mus musculus, 72 h, read-out: Inhibitory activity against IL-5 production
# Experimental: as §1
# [2] = dosage 0.1 mg/kg oral, serum 2 h after dosing, Balb/c mouse
# [3] = dosage 0.3 mg/kg oral, serum 2 h after dosing, Balb/c mouse
# [4] = citric acid/disodium phosphate buffer, pH 2.5, aqueous buffer
# [5] = citric acid/disodium phosphate buffer, pH 5.5, aqueous buffer
# [6] = citric acid/disodium phosphate buffer, pH 7.4, aqueous buffer
SMILES,"Interferon-inducing activity (Balb/c male mouse; po, 0.1 mg/kg, 2 h) [U/ml]","Interferon-inducing activity (Balb/c male mouse; po, 0.3 mg/kg, 2 h) [U/ml]",minimal effective concentration (mouse spleen cell) [µM],"solubility at 30 min [1, 4] [µg/mL]","solubility at 30 min [1, 5] [µg/mL]","solubility at 30 min [1, 6] [µg/mL]",other results
"CCCCOc1nc(N)c2nc(O)n(Cc3ccc(OCC)nc3)c2n1 [Example 3, 2-Butoxy-9-(6-ethoxy-3-pyridylmethyl)-8-hydroxyadenine]",353 ± 73,1966 ± 532,0.001,,,,
"CCCCOc1ccc(Cn2c(O)nc3c(N)nc(OCCCC)nc32)cn1 [Example 4, 2-Butoxy-9-(6-n-butoxy-3-pyridylmethyl)-8-hydroxyadenine]",,,0.01,,,,
"CCCCOc1nc(N)c2nc(O)n(Cc3cccnc3Cl)c2n1 [Example 5, 2-Butoxy-9-(2-chloro-3-pyridylmethyl)-8-hydroxyadenine]",133 ± 33,473 ± 9,0.003,,,,
"CCCCOc1nc(N)c2nc(O)n(Cc3cccnc3OC)c2n1 [Example 6, 2-Butoxy-8-hydroxy-9-(2-methoxy-3-pyridylmethyl)adenine]",569 ± 42,1222 ± 248,0.001,,,,
"CCCCOc1nc(N)c2nc(O)n(Cc3cnc(Cl)c(OC)c3)c2n1 [Example 7, 2-Butoxy-9-(6-chloro-5-methoxy-3-pyridylmethyl)-8-hydroxyadenine]",,,0.001,,,,Interferon-inducing activity (Balb/c male mouse; [2]): 347 ± 149 U/ml; Interferon-inducing activity (Balb/c male mouse; [3]): 845 ± 22 U/ml
"CCCCOc1nc(N)c2nc(O)n(Cc3cccnc3)c2n1 [Example 8, 2-Butoxy-8-hydroxy-9-(3-pyridylmethyl)adenine]",725 ± 141,936 ± 438,0.001,784,20,18,"Interferon-inducing activity (Balb/c male mouse; po, 0.01 mg/kg, 2 h): 13 ± 5 U/ml; Interferon-inducing activity (Balb/c male mouse; po, 0.03 mg/kg, 2 h): 167 ± 97 U/ml"
"CCCCOc1nc(N)c2nc(O)n(Cc3ccncc3)c2n1 [Example 9, 2-Butoxy-8-hydroxy-9-(4-pyridylmethyl)adenine]",,539 ± 107,0.003,350,4,3,
CCCCOc1nc(N)c2nc(O)n(Cc3cnccn3)c2n1 [Example 10],,,,,,,"activity at 0.001 µM (IL-4 production): 54%; activity at 0.01 µM (IL-4 production): 3%; activity at 0.1 µM (IL-4 production): < 1%; Interferon-inducing activity (Balb/c male mouse; dosage 0.03 mg/kg oral, serum 2 h after dosing, Balb/c mouse): 89 ± 22 U/ml; Interferon-inducing activity (Balb/c male mouse; [2]): 409 ± 267 U/ml; Interferon-inducing activity (Balb/c male mouse; [3]): 733 ± 256 U/ml; activity at 0.001 µM (IL-5 production): 91%; activity at 0.01 µM (IL-5 production): 32%; activity at 0.1 µM (IL-5 production): 15%; solubility at 30 min ([1]; pH 2.5, aqueous buffer): 34 µg/mL; solubility at 30 min ([1]; pH 5.5, aqueous buffer): 15 µg/mL; solubility at 30 min ([1]; pH 7.4, aqueous buffer): 10 µg/mL"
"CCCCOc1nc(N)c2nc(O)n(Cc3cnc(Cl)c(Cl)c3)c2n1 [Example 11, 2-Butoxy-9-(5,6-dichloro-3-pyridylmethyl)-8-hydroxyadenine]",,,0.003,,,,Interferon-inducing activity (Balb/c male mouse; [2]): 279 ± 177 U/ml; Interferon-inducing activity (Balb/c male mouse; [3]): 568 ± 160 U/ml
"CCCCOc1nc(N)c2nc(O)n(Cc3ccc(Cl)nc3Cl)c2n1 [Example 12, 2-Butoxy-9-(2,6-dichloro-3-pyridylmethyl)-8-hydroxyadenine]",,,0.01,,,,Interferon-inducing activity (Balb/c male mouse; [3]): 31 ± 5 U/ml
"CCCCOc1nc(N)c2nc(O)n(Cc3ccc(N4CCCCC4)nc3)c2n1 [Example 13, 2-Butoxy-9-(6-piperidino-3-pyridylmethyl)-8-hydroxyadenine]",,304 ± 138,0.003,,,,
"CCCCOc1nc(N)c2nc(O)n(Cc3ccc(N4CCCC4)nc3)c2n1 [Example 14, 2-Butoxy-9-(6-(1-pyrrolidinyl)-3-pyridylmethyl)-8-hydroxyadenine]",,570 ± 63,0.001,,,,
"CCCCOc1nc(N)c2nc(O)n(Cc3ccc(N4CCOCC4)nc3)c2n1 [Example 15, 2-Butoxy-9-(6-morpholino-3-pyridylmethyl)-8-hydroxyadenine]",52 ± 32,603 ± 147,0.001,140,1,< 1,
"CCCCOc1nc(N)c2nc(O)n(Cc3ccc(N(C)C)nc3)c2n1 [Example 16, 2-Butoxy-9-(6-dimethylamino-3-pyridylmethyl)-8-hydroxyadenine]",251 ± 46,716 ± 155,0.001,293,,,
"CCCCNc1nc(N)c2nc(O)n(Cc3cccnc3Cl)c2n1 [Example 18, 2-Butylamino-9-(2-chloro-3-pyridylmethyl)-8-hydroxyadenine]",,94 ± 49,0.01,,,,
"CCCCNc1nc(N)c2nc(O)n(Cc3ccc(Cl)nc3Cl)c2n1 [Example 23, 2-Butylamino-9-(2,6-dichloro-3-pyridylmethyl)-8-hydroxyadenine]",,,0.01,,,,Interferon-inducing activity (Balb/c male mouse; [2]): 42 ± 7 U/ml; Interferon-inducing activity (Balb/c male mouse; [3]): 414 ± 118 U/ml
"CCCCNc1nc(N)c2nc(O)n(Cc3ccc(N(C)C)nc3)c2n1 [Example 24, 2-Butylamino-9-(6-dimethylamino-3-pyridylmethyl)-8-hydroxyadenine]",,403 ± 146,0.003,27000,22,1,
"CCCCOc1nc(N)c2nc(O)n(Cc3cccnc3C)c2n1 [Example 26, 2-Butoxy-8-hydroxy-9-(2-methyl-3-pyridylmethyl)adenine]",433 ± 366,780 ± 190,0.001,> 1000,6,3,"Interferon-inducing activity (Balb/c male mouse; po, 0.03 mg/kg, 2 h): 121 ± 11 U/ml"
"CCCCNc1nc(N)c2nc(O)n(Cc3cccnc3C)c2n1 [Example 28, 2-Butylamino-8-hydroxy-9-(2-methyl-3-pyridylmethyl)adenine]",186 ± 62,1462 ± 260,0.01,> 1000,8,4,
"CCCCNc1nc(N)c2nc(O)n(Cc3ccc(C)nc3Cl)c2n1 [Example 29, 2-Butylamino-9-(2-chloro-6-methyl-3-pyridylmethyl)-8-hydroxyadenine]",,,0.01,,,,Interferon-inducing activity (Balb/c male mouse; [3]): 619 ± 268 U/ml
"COCCOc1nc(N)c2nc(O)n(Cc3cccnc3)c2n1 [Example 31, 8-Hydroxy-2-(2-methoxy)ethoxy-9-(3-pyridylmethyl)adenine]",,,,,,,"Solubility (level of compound in supernatant) ([1]; pH 2.5 buffer): >1,000 μg/ml; Solubility (level of compound in supernatant) ([1]; pH 5.5 buffer): 353 µg/mL; Solubility (level of compound in supernatant) ([1]; pH 7.4 buffer): 322 µg/mL"
"COc1nc(N)c2nc(O)n(Cc3cccnc3)c2n1 [Example 32, 8-Hydroxy-2-methoxy-9-(3-pyridylmethyl)adenine]",,,,> 1000,82,25,
